Experimental data reported in ChEMBL document CHEMBL1255420, “Fluoroquinolone resistance in Streptococcus dysgalactiae subsp. equisimilis and evidence for a shared global gene pool with Streptococcus pyogenes” (2010).

Experiments:
[1] = tested on: Streptococcus dysgalactiae subsp. equisimilis; test: Antibacterial activity against gyrA01, parC allele containing Streptococcus dysgalactiae subsp. equisimilis with ParC N91D, P140S mutant by CLSI […] method; format: functional
[2] = tested on: Streptococcus dysgalactiae subsp. equisimilis; test: Antibacterial activity against gyrA01, parC03 allele containing Streptococcus dysgalactiae subsp. equisimilis with GyrA S79P mutant by CLSI […] method; format: functional
[3] = tested on: Streptococcus dysgalactiae subsp. equisimilis; test: Antibacterial activity against gyrA04, parC15 allele containing Streptococcus dysgalactiae subsp. equisimilis with GyrA S81F, S79F/ParC N91D mutant by CLSI […] method; format: functional
[4] = tested on: Streptococcus dysgalactiae subsp. equisimilis; test: Antibacterial activity against gyrA04, parC17 allele containing Streptococcus dysgalactiae subsp. equisimilis with GyrA S81F, S79F/ParC N91D, P140S mutant by CLSI […] method; format: functional
[5] = tested on: Streptococcus dysgalactiae subsp. equisimilis; test: Antibacterial activity against gyrA04, parC14 allele containing Streptococcus dysgalactiae subsp. equisimilis with GyrA S81F/ParC N91D mutant by CLSI […] method; format: functional
[6] = tested on: Streptococcus dysgalactiae subsp. equisimilis; test: Antibacterial activity against gyrA03, parC08 allele containing Streptococcus dysgalactiae subsp. equisimilis with GyrA E85K, S79F mutant by CLSI […] method; format: functional
[7] = tested on: Streptococcus dysgalactiae subsp. equisimilis; test: Antibacterial activity against gyrA03, parC06 allele containing Streptococcus dysgalactiae subsp. equisimilis with GyrA E85K, S79Y mutant by CLSI […] method; format: functional
[8] = tested on: Streptococcus dysgalactiae subsp. equisimilis; test: Antibacterial activity against gyrA04, parC09 allele containing Streptococcus dysgalactiae subsp. equisimilis with GyrA S81F/ParC D83N mutant by CLSI […] method; format: functional
[9] = tested on: Streptococcus dysgalactiae subsp. equisimilis; test: Antibacterial activity against gyrA02, parC17 allele containing Streptococcus dysgalactiae subsp. equisimilis with GyrA S81Y, S79F/ParC N91D, P140S mutant by CLSI […] method
[10] = tested on: Streptococcus dysgalactiae subsp. equisimilis; test: Antibacterial activity against gyrA01, parC14 allele containing Streptococcus dysgalactiae subsp. equisimilis with ParC N91D mutant by CLSI […] method; format: functional
[11] = tested on: Streptococcus dysgalactiae subsp. equisimilis; test: Antibacterial activity against gyrA01, parC19 allele containing Streptococcus dysgalactiae subsp. equisimilis with GyrA S79A/ParC N91D, P140S mutant by CLSI […] method; format: functional
[12] = tested on: Streptococcus dysgalactiae subsp. equisimilis; test: Antibacterial activity against gyrA01, parC17 allele containing Streptococcus dysgalactiae subsp. equisimilis with GyrA S79F, S79F/ParC N91D, P140S mutant by CLSI […] method; format: functional
[13] = tested on: Streptococcus dysgalactiae subsp. equisimilis; test: Antibacterial activity against gyrA01, parC12 allele containing Streptococcus dysgalactiae subsp. equisimilis with ParC G166E mutant by CLSI […] method; format: functional
[14] = tested on: Streptococcus dysgalactiae subsp. equisimilis; test: Antibacterial activity against gyrA03, parC10 allele containing Streptococcus dysgalactiae subsp. equisimilis with GyrA E85K/ParC D83G mutant by CLSI […] method; format: functional
[15] = tested on: Streptococcus dysgalactiae subsp. equisimilis; test: Antibacterial activity against gyrA01, parC allele containing Streptococcus dysgalactiae subsp. equisimilis by CLSI […] method; format: functional
[16] = tested on: Streptococcus dysgalactiae subsp. equisimilis; test: Antibacterial activity against gyrA04, parC13 allele containing Streptococcus dysgalactiae subsp. equisimilis with GyrA S81F, S79A mutant by CLSI […] method; format: functional
[17] = tested on: Streptococcus dysgalactiae subsp. equisimilis; test: Antibacterial activity against gyrA04, parC allele containing Streptococcus dysgalactiae subsp. equisimilis with GyrA S81F, S79F mutant by CLSI […] method; format: functional
[18] = tested on: Streptococcus dysgalactiae subsp. equisimilis; test: Antibacterial activity against gyrA01, parC04 allele containing Streptococcus dysgalactiae subsp. equisimilis with GyrA S79F mutant by CLSI […] method; format: functional
[19] = tested on: Streptococcus dysgalactiae subsp. equisimilis; test: Antibacterial activity against gyrA05, parC05 allele containing Streptococcus dysgalactiae subsp. equisimilis with GyrA D142N mutant by CLSI […] method; format: functional

SMILES: C[C@H]1COc2c(N3CCN(C)CC3)c(F)cc3c(=O)c(C(=O)O)cn1c23.C[C@H]1COc2c(N3CCN(C)CC3)c(F)cc3c(=O)c(C(=O)O)cn1c23.O [LEVOFLOXACIN]
- MIC [1]: 0.19 µg/mL
- MIC [2]: 0.75 µg/mL
- MIC [3]: > 32 µg/mL
- MIC [4]: > 32 µg/mL
- MIC [5]: 4 µg/mL
- MIC [6]: > 32 µg/mL
- MIC [7]: > 32 µg/mL
- MIC [8]: > 8 µg/mL
- MIC [9]: > 32 µg/mL
- MIC [10]: 0.5 µg/mL
- MIC [11]: 2 µg/mL
- MIC [12]: 1.5 µg/mL
- MIC [13]: 1 µg/mL
- MIC [14]: 8 µg/mL
- MIC [15]: 0.38 µg/mL
- MIC [16]: 12 µg/mL
- MIC [17]: > 32 µg/mL
- MIC [18]: 3 µg/mL
- MIC [19]: 0.38 µg/mL
